Assay results taken from ChEMBL document CHEMBL1201862, “PubChem BioAssay data set” (2004).
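How tested: cells in 96-well plates exposed to compound for 48 hours at five concentrations. At the GI50, growth is halved.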 Calls of active or inactive are those of the source. Rule as the data show it: active = GI50 up to about 1.1 µM and inactive = higher.

Tests used:
Assay in all cases: NCI-60 cell line screen, 48 h
ACHN = tested on: ACHN
HOP-92 = tested on: HOP-92
K562 = tested on: K562
KM12 = tested on: KM12
LOX IMVI = tested on: LOX IMVI
MOLT-4 = tested on: MOLT-4
NCI-H226 = tested on: NCI-H226
NCI-H460 = tested on: NCI-H460
NCI-H522 = tested on: NCI-H522
OVCAR-3 = tested on: OVCAR-3
OVCAR-5 = tested on: OVCAR-5
OVCAR-8 = tested on: OVCAR-8
SF-268 = tested on: SF-268
SF-539 = tested on: SF-539
SK-MEL-28 = tested on: SK-MEL-28
SK-MEL-2 = tested on: SK-MEL-2
SK-MEL-5 = tested on: SK-MEL-5
SNB-19 = tested on: SNB-19
SNB-75 = tested on: SNB-75
SW-620 = tested on: SW-620

Measured: GI50

CO[C@H]1C=C[C@@]23c4cc5c(cc4CO[C@]2(O)CN(C)[C@H]3C1)OCO5
inactive: ACHN > 100 µM | HOP-92 > 100 µM | K562 > 100 µM | KM12 > 100 µM | LOX IMVI > 100 µM | MOLT-4 > 100 µM | NCI-H226 > 100 µM | NCI-H460 > 100 µM | NCI-H522 > 100 µM | OVCAR-3 > 100 µM | OVCAR-5 > 100 µM | OVCAR-8 > 100 µM | SF-268 > 100 µM | SF-539 > 100 µM | SK-MEL-28 > 100 µM | SK-MEL-2 > 100 µM | SK-MEL-5 > 100 µM | SNB-19 > 100 µM | SNB-75 > 100 µM | SW-620 > 100 µM

C=CCNC(=O)N(CCC)CCCCC(NC(C)=O)C(=O)NCc1ccccc1 (stereo unspecified)
inactive: ACHN > 100 µM | HOP-92 > 100 µM | K562 > 100 µM | KM12 > 100 µM | LOX IMVI > 100 µM | MOLT-4 > 100 µM | NCI-H226 > 100 µM | NCI-H460 > 100 µM | NCI-H522 > 100 µM | OVCAR-3 > 100 µM | OVCAR-5 > 100 µM | OVCAR-8 > 100 µM | SF-268 > 100 µM | SF-539 > 100 µM | SK-MEL-28 > 100 µM | SK-MEL-2 > 100 µM | SK-MEL-5 > 100 µM | SNB-19 > 100 µM | SNB-75 > 100 µM | SW-620 > 100 µM

O=C(NC1C/C(=N/O)c2c(Br)sc(Br)c21)C(F)(F)F (stereo unspecified)
inactive: ACHN 34 µM | HOP-92 3.65 µM | K562 20 µM | KM12 45 µM | LOX IMVI 25.5 µM | MOLT-4 26.3 µM | NCI-H226 18.4 µM | NCI-H460 25.4 µM | NCI-H522 26.1 µM | OVCAR-3 35.8 µM | OVCAR-5 > 100 µM | OVCAR-8 20.7 µM | SF-268 23.6 µM | SF-539 17.3 µM | SK-MEL-2 11.4 µM | SK-MEL-5 19.6 µM | SNB-19 41.7 µM | SNB-75 29.5 µM | SW-620 30.2 µM

CC(=O)[C@H]1CCC2[C@@H]3CC=C4C(O)C(OS(=O)(=O)O)CC[C@]4(C)C3CC[C@@]21C (stereo partly specified)
inactive: HOP-92 > 100 µM | K562 > 100 µM | KM12 > 100 µM | LOX IMVI > 100 µM | MOLT-4 > 100 µM | NCI-H226 > 100 µM | NCI-H460 > 100 µM | NCI-H522 > 100 µM | OVCAR-3 > 100 µM | OVCAR-5 > 100 µM | OVCAR-8 > 100 µM | SF-268 > 100 µM | SF-539 > 100 µM | SK-MEL-28 > 100 µM | SK-MEL-2 > 100 µM | SK-MEL-5 > 100 µM | SNB-19 > 100 µM | SNB-75 > 100 µM | SW-620 > 100 µM

COCCO [2-METHOXYETHANOL]
inactive: HOP-92 > 100 µM | K562 > 100 µM | KM12 > 100 µM | LOX IMVI > 100 µM | MOLT-4 > 100 µM | NCI-H226 > 100 µM | NCI-H460 > 100 µM | NCI-H522 > 100 µM | OVCAR-3 > 100 µM | OVCAR-5 > 100 µM | OVCAR-8 > 100 µM | SF-268 > 100 µM | SF-539 > 100 µM | SK-MEL-28 > 100 µM | SK-MEL-2 > 100 µM | SK-MEL-5 > 100 µM | SNB-19 > 100 µM | SNB-75 > 64.6 µM | SW-620 > 100 µM

C=CC(=O)NC(O)(C(=O)OCC)C(F)(F)F (stereo unspecified)
inactive: ACHN > 100 µM | HOP-92 > 100 µM | K562 > 100 µM | KM12 > 100 µM | LOX IMVI > 100 µM | MOLT-4 > 100 µM | NCI-H226 > 100 µM | NCI-H522 > 100 µM | OVCAR-3 > 100 µM | OVCAR-5 > 100 µM | OVCAR-8 > 100 µM | SF-268 > 100 µM | SF-539 > 100 µM | SK-MEL-28 > 100 µM | SK-MEL-2 > 100 µM | SK-MEL-5 > 100 µM | SNB-19 > 100 µM | SNB-75 > 100 µM | SW-620 > 100 µM
